For orientation: Kd means the free concentration of one partner at which half of the binding sites on the other are occupied at equilibrium, for simple one-to-one binding. A lower Kd goes with tighter binding.

Data on three compounds can be found in publication PMC6766871 (International Journal of Cancer, 2019).

Where two headings read alike, the source gives them in different places.

Data set [1] concerns FGFR1-amplified squamous NSCLC. The settings on record: initial clinical results; cited from earlier work.
The subject of the next data set is LXFL1121 human NSCLC PDX. In words: antitumor efficacy, patient-derived LXFL1121 NSCLC xenograft in NMRI nu/nu mice.
For data set [2], the system named is DMS-114 human SCLC xenograft. In words: antitumor efficacy, DMS-114 lung cancer xenograft in NMRI nu/nu mice. To be noted: for T/C volume: rogaratinib 50 mg/kg BID p.o., docetaxel 30 mg/kg Q7D i.v., carboplatin 80 mg/kg Q7D / paclitaxel 24 mg/kg Q7D i.p., 10 days.
A short description of data set [3]: body weight monitoring in tumor-bearing mice. Type of data set: in vivo, mouse.
Data set [4] has as its system LU299 human lung cancer PDX. In words: antitumor efficacy, patient-derived LU299 lung cancer xenograft in nu/nu mice. The settings on record: 33 days.
Data set [5] deals with T1, VEGFR3 (Homo sapiens, UniProt P35916). The experiment in a line: KINOMEscan competition binding.
T1 sequence (P35916 25-1363): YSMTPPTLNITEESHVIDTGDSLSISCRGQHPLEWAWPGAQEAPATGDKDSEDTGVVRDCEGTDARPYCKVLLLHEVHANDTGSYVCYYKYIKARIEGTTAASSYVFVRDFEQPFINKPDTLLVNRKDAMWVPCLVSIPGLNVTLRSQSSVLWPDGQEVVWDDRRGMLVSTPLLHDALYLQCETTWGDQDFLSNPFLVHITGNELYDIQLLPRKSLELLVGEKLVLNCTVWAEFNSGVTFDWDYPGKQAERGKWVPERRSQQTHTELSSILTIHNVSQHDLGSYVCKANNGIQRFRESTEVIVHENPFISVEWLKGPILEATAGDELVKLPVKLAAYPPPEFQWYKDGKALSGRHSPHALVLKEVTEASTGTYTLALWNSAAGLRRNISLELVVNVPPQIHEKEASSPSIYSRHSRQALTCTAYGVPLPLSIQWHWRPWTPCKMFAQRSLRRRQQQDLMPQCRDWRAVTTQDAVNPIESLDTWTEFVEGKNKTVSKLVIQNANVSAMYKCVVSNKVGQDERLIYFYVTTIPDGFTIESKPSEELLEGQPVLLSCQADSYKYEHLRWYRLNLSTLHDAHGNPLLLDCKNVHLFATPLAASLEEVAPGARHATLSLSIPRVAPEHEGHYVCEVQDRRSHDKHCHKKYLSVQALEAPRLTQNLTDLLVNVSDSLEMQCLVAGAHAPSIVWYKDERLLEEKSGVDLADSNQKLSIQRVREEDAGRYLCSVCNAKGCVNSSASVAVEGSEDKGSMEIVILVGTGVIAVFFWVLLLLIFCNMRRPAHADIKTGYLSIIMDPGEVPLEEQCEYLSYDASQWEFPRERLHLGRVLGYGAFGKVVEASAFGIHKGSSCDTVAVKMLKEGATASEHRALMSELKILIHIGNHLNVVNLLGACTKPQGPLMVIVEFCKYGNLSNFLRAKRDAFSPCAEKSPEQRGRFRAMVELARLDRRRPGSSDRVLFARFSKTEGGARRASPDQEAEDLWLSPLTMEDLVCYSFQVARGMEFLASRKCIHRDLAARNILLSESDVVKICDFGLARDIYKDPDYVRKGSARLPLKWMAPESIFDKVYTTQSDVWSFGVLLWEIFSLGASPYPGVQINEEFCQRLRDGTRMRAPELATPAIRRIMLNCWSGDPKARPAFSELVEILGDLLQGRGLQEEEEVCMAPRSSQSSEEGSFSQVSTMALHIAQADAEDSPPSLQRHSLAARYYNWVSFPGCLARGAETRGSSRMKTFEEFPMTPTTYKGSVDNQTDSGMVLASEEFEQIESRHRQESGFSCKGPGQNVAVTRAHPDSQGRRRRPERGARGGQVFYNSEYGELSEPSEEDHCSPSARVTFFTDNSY
The target in data set [6] is T2, FGFR2 (Homo sapiens, UniProt P21802). In words: KINOMEscan competition binding.
T2 sequence (P21802 481-770 limits assumed): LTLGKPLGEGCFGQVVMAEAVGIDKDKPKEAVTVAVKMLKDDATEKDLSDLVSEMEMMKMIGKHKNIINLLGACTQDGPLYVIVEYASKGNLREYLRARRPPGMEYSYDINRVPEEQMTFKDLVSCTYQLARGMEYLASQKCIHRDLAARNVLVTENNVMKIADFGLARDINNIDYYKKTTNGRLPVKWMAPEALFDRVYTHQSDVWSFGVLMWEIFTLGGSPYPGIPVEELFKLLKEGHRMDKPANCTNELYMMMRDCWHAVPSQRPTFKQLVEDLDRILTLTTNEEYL
The subject of data set [7] is p-ERK1/2 in NCI-H1581 cells. The experiment in a line: Western blot, ERK1/2 phosphorylation. To be noted: NCI-H1581, 0–10,000 nM. Type of data set: cell-based, human. Background: A western blot detects proteins with antibodies after separation by electrophoresis.
A short description of data set [8]: maximally tolerated dose in Balb/cJ mice. Format: in vivo, mouse.
The test system of data set [9] is p-ERK1/2 in UM-UC-3 cells. The experiment in a line: Western blot, ERK1/2 phosphorylation. Type of data set: cell-based, human. To be noted: UM-UC-3, 0–10,000 nM.
Data set [10] has as its target T3, CSF1R (Homo sapiens, UniProt P07333). The experiment in a line: kinase inhibition assay. Type of data set: biochemical.
Another data set deals with 468 kinase targets. The experiment in a line: KINOMEscan profiling, kinase panel. Type of data set: binding. To be noted: of 403 non-mutant kinases.
Data set [11] has as its target T2, FGFR2. In words: radiometric kinase activity assay. Format: biochemical.
In another data set the test system is 77 non-kinase targets. The experiment in a line: PanLabs Safety screen, whole panel. To be noted: 10 µM.
The target in a further data set is VEGFR1 (Homo sapiens, UniProt P17948). The experiment in a line: KINOMEscan competition binding.
Sequence of VEGFR1 (P17948 27-1338): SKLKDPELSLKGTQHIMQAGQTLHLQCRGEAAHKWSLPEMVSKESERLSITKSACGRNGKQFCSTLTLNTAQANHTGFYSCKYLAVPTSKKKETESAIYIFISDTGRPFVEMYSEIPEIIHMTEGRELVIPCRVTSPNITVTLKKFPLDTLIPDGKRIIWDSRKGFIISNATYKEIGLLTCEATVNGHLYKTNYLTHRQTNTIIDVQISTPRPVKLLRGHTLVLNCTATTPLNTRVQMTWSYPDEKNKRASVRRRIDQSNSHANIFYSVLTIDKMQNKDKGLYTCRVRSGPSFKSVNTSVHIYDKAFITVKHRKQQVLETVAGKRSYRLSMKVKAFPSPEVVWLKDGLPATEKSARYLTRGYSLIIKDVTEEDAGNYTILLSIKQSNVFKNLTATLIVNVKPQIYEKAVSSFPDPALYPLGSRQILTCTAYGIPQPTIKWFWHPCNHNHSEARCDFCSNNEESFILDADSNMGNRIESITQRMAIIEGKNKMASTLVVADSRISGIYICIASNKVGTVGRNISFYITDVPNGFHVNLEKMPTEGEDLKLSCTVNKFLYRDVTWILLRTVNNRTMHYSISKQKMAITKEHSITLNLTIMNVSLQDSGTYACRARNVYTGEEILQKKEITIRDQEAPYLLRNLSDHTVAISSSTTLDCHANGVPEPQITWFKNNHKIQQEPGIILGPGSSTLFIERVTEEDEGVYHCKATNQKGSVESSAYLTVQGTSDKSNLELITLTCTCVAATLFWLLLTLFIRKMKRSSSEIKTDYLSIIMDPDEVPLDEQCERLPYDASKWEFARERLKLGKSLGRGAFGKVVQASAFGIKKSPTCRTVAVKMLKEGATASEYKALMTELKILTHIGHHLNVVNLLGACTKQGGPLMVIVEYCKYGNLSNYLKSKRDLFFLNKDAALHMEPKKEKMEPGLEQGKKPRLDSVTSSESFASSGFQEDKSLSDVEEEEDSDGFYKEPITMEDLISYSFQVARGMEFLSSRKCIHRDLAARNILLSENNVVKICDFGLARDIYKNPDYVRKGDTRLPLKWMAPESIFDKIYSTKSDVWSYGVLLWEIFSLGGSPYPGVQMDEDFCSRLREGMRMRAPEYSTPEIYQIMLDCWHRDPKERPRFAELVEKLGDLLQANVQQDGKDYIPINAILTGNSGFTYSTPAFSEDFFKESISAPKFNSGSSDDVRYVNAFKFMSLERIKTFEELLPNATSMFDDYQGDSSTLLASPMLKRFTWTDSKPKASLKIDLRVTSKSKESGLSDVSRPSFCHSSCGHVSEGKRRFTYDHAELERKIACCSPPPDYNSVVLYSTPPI
Data set [12] concerns NCI-H716 human colon cancer xenograft. In words: antitumor efficacy, NCI-H716 colorectal xenograft in NMRI nu/nu mice. The settings on record: 50 mg/kg BID; 1/8 mice.
Data set [13] has as its system pERK1/2 (T202/Y204,T185/Y187) in MFM-223 cells. The experiment in a line: FGF2-induced ERK1/2 phosphorylation, MSD-ELISA. Format: cell-based. The settings on record: Homo sapiens, MFM-223, read-out: IC50 pERK1/2 (T202/Y204,T185/Y187).
The subject of data set [14] is C51 colon tumors. In words: antitumor efficacy, syngeneic C51 colon cancer model in BALB/cJ mice. To be noted: for partial response (PR) rate (RECIST): 2/9 mice.
For data set [15], the target named is T1, VEGFR3. The experiment in a line: kinase inhibition assay. Type of data set: biochemical.
Data set [16] has as its system p-FGFR2 and p-ERK1/2 in NCI-H716 tumors. The experiment in a line: PK/PD, phosphorylation of FGFR2 and ERK1/2 in NCI-H716 tumor tissue. Type of data set: in vivo, mouse.
Data set [17] has as its system p-ERK1/2 in MDA-MB-453 cells. In words: Western blot, ERK1/2 phosphorylation. The settings on record: MDA-MB-453, 0–1,000 nM, 2 h. Format: cell-based, human.
The target of the next data set is TIE2 (Homo sapiens, UniProt Q02763). The experiment in a line: kinase inhibition assay. Type of data set: biochemical.
Sequence of TIE2 (Q02763 23-1124): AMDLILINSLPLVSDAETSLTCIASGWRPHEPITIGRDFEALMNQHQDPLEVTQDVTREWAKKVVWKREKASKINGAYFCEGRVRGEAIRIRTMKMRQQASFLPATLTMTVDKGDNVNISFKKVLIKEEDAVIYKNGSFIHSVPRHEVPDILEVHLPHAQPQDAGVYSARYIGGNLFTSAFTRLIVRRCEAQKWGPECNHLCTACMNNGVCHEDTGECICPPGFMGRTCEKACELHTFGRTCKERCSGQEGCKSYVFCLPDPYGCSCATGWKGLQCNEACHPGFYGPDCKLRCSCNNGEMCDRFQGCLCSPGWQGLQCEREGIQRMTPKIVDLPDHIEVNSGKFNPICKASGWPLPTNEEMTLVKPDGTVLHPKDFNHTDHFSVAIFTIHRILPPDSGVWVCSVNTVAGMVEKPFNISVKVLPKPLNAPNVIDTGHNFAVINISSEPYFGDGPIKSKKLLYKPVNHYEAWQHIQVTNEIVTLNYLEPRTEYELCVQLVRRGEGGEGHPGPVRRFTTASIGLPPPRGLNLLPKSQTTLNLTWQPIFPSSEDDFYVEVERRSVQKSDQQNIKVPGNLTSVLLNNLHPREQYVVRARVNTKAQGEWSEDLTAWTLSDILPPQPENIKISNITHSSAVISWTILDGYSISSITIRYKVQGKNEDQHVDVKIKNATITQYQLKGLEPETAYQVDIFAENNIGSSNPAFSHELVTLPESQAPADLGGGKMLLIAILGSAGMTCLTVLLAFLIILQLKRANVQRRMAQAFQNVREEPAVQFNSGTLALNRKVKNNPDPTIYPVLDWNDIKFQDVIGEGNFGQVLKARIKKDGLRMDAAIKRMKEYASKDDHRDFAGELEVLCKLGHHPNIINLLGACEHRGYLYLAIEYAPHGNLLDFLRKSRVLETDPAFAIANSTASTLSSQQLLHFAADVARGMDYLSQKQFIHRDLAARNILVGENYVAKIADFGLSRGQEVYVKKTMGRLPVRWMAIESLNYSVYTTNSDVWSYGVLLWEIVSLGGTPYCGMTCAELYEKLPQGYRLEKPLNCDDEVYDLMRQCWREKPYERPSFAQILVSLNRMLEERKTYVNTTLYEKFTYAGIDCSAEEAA
Data set [18] addresses T3, CSF1R. In words: KINOMEscan competition binding. The settings on record: 100 nM rogaratinib.
Data set [19] deals with p-FGFR2 in NCI-H716 cells. In words: Western blot, FGFR2 auto-phosphorylation. Format: cell-based, human. The settings on record: NCI-H716, 100 nM.
A short description of data set [20]: plasma pharmacokinetics in NCI-H716 tumor-bearing NMRI nu/nu mice.
Data set [21] can be described thus: body weight monitoring in tumor-bearing rats. Type of data set: in vivo, rat. The settings on record: C51 model, nude rats, monotherapy.
The subject of another data set is VEGF-A-stimulated HUVEC. The experiment in a line: HUVEC growth assay, VEGF-A-stimulated. The settings on record: for IC50: Homo sapiens, 72 h. Type of data set: cell-based, human.
In another data set the test system is FGF2-stimulated HUVEC. In words: HUVEC growth assay, FGF2-stimulated. The settings on record: Homo sapiens, 72 h, read-out: IC50 inhibition of FGF2-stimulated growth. Type of data set: cell-based.
For data set [22], the system named is p-ERK1/2 in NCI-H520 cells. The experiment in a line: Western blot, ERK1/2 phosphorylation. Type of data set: cell-based, human. The settings on record: NCI-H520, 0–10,000 nM.
Data set [23] concerns pERK1/2 (T202/Y204,T185/Y187) in C51 cells. In words: ERK1/2 phosphorylation, MSD-ELISA. Type of data set: cell-based. The settings on record: Mus musculus, read-out: IC50 pERK1/2 (T202/Y204,T185/Y187). Background: ELISA stands for enzyme-linked immunosorbent assay.
Data set [24] concerns C51 colon tumors. In words: antitumor efficacy, C51 colon cancer model in nude rats.
In data set [25] the test system is p-ERK1/2 in NCI-H716 cells. The experiment in a line: Western blot, ERK1/2 phosphorylation. To be noted: NCI-H716, 100 nM. Type of data set: cell-based, human.
The test system of data set [26] is p-FGFR4 in MDA-MB-453 cells. In words: Western blot, FGFR4 auto-phosphorylation. Format: cell-based, human. To be noted: MDA-MB-453, 0–1,000 nM, 2 h.
Data set [27] deals with pERK1/2 (T202/Y204,T185/Y187) in DMS-114 cells. The experiment in a line: FGF2-induced ERK1/2 phosphorylation, MSD-ELISA. Type of data set: cell-based. To be noted: Homo sapiens, DMS-114, read-out: IC50 pERK1/2 (T202/Y204,T185/Y187).
Another data set has as its system p-ERK1/2 in RT-112 cells. In words: Western blot, ERK1/2 phosphorylation. To be noted: RT-112, 0–10,000 nM. Type of data set: cell-based, human.

T3 sequence (P07333 20-972): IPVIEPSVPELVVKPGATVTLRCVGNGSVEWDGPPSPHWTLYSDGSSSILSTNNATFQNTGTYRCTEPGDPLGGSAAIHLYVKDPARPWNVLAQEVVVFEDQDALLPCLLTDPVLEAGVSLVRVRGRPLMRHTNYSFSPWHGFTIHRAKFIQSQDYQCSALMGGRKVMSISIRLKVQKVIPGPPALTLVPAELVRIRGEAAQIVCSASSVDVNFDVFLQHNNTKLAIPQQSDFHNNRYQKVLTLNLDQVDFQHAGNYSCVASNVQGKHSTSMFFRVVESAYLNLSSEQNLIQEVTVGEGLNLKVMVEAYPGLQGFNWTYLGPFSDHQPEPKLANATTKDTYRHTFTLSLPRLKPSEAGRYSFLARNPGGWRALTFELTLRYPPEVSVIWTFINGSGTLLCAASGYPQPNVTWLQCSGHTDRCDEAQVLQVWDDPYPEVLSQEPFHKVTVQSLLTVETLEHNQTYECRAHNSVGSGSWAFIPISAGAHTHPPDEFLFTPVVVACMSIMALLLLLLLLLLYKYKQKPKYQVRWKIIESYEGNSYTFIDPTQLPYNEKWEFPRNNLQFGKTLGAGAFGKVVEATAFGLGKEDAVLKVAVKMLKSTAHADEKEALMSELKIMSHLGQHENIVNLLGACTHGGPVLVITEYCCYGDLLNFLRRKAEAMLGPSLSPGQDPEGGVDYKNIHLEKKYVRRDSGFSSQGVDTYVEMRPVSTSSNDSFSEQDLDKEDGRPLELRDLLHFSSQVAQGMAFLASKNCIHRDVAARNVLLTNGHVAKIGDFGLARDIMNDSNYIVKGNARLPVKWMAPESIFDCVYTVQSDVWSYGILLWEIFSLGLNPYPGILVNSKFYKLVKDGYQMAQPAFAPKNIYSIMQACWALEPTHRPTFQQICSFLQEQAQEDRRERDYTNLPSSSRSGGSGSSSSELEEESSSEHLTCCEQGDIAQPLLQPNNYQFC

On to `CCN1CCN(c2ccc(Nc3cc(N(C)C(=O)Nc4c(Cl)c(OC)cc(OC)c4Cl)ncn3)cc2)CC1` [BGJ398, 3‐(2,6‐dichloro‐3,5‐dimethoxy‐phenyl)‐1‐{6‐[4‐(4‐ethyl‐piperazin‐1‐yl)‐phenylamino]‐pyrimidin‐4‐yl}‐1‐methyl‐urea], for which the response rate in data set [1] is 11%.
Take `CC(=O)O[C@@]12CO[C@@H]1C[C@H](O)[C@@]1(C)C(=O)[C@H](O)C3=C(C)[C@@H](OC(=O)[C@H](O)[C@@H](NC(=O)OC(C)(C)C)c4ccccc4)C[C@@](O)([C@@H](OC(=O)c4ccccc4)[C@H]21)C3(C)C` [docetaxel, reference compound]: in the data set with LXFL1121 human NSCLC PDX (drug-free observation period after treatment), the tumor response post-treatment result is given as “tumor regrowth was observed”. For the same compound, the T/C volume in [2] was 0.27. Also, the PR rate in [2] (rogaratinib 50 mg/kg BID, docetaxel 30 mg/kg Q7D, carboplatin 80 mg/kg Q7D / paclitaxel 24 mg/kg Q7D) stood at 40%. Also, the “maximum body weight loss” value in data set [3] (DMS-114 model) was found to be 2.4%. In addition, the “maximum body weight losses” value in data set [3] (LU299 model) was 14.1%. In addition, the “PRs (RECIST)” value in data set [4] (rogaratinib 50 mg/kg BID, docetaxel Q7D i.v., n=10) stood at 60%.
For the compound `COCc1c(-c2cc3cc(C)cc(OC)c3s2)c2c(N)ncnn2c1CN1CCNC(=O)C1` [rogaratinib, 4‐{[4‐amino‐6‐(methoxymethyl)‐5‐(7‐methoxy‐5‐methyl‐1‐benzothiophen‐2‐yl)pyrrolo[2,1‐f][1,2,4]triazin‐7‐yl]methyl}piperazin‐2‐one], the Kd amounted to 0.15 µM at VEGFR3 [5], 0.005 µM on FGFR2 [6] and 0.19 µM on VEGFR1. The “inhibition of ERK1/2 phosphorylation” value in data set [7] was “potent inhibition”; in data set [9] it was “less sensitive”; in data set [22], “less sensitive”; in the data set on p-ERK1/2 in RT-112 cells, “potent inhibition”. Further, the maximally tolerated dose in data set [8] (BID) stood at 50 mg/kg; in data set [8] (QD) it was 75 mg/kg. For the same compound, the IC50 is 0.166 µM on CSF1R [10]; under 0.001 µM against FGFR2 [11]; 0.011 µM in [13]; 0.13 µM on VEGFR3 [15]; 1.3 µM on TIE2; 0.501 µM with VEGF-A-stimulated HUVEC (read-out: −logIC50 inhibition of VEGF-A-stimulated growth (converted)). Moreover, the IC50 was 0.453 µM in the data set with VEGF-A-stimulated HUVEC (HUVEC, read-out: IC50 inhibition of VEGF-A-stimulated growth); 0.016 µM in the data set with FGF2-stimulated HUVEC; 0.28 µM in [23]; 0.02 µM in data set [27]. Further, the “number of additional kinases besides FGFR1-4 with competition binding >65%” value came to 4 in the data set with 468 kinase targets (100 nM rogaratinib) and 18 with 468 kinase targets (1 μM rogaratinib). Further, the “number of significant hits in a set of 77 non-kinase targets” value with 77 non-kinase targets is listed as 3. Also, the “binding affinity to VEGFRs lower compared to FGFR1” value on VEGFR1 (VEGFR1, VEGFR3 vs FGFR1 Kd) was “about 100 fold”. Further, the “partial responses (PR)” value in [12] is 12.5%. Moreover, the T/C volume in the data set with LXFL1121 human NSCLC PDX (50 mg/kg BID p.o., 22 days) amounted to 0.26; in [2] it was 0.34; in [4] (50 mg/kg BID p.o.), 0.33. Besides, in the data set with C51 colon tumors [14] (25 mg/kg QD p.o., 13 days), the antitumor efficacy entry is “not efficacious”. Further, the “partial response (PR) rate (RECIST)” value in the data set with C51 colon tumors [14] (50 mg/kg QD) and in the data set on C51 colon tumors [14] (75 mg/kg QD) was 22% throughout. For the same compound, in the data set on C51 colon tumors [14] (75 mg/kg QD, 1/9 mice), the “stable disease (SD) rate (RECIST)” value stood at 11%. The “FGFR2 and ERK1/2 phosphorylation levels in tumor” value in [16] (24-h time point after single dose 35, 50 or 65 mg/kg) is “returned to levels similar to the vehicle control”; in data set [16] (for at least five hours after single dose 35, 50 or 65 mg/kg), “strong inhibition of FGFR signaling”. In data set [17], the ERK1/2 phosphorylation entry was “preventing ERK1/2 phosphorylation in the same concentration range”. Moreover, the “inhibition of binding to CSF1R in KINOMEscan profiling” value on CSF1R [18] is given as “strong inhibition”. In data set [19], the “auto-phosphorylation of FGFR2” value is reported as “effectively inhibited”. In addition, the “unbound Cmax concentration in plasma” value in data set [20] (single dose 35 mg/kg after 10-day drug-free period) was 123 nM; in data set [20] (single dose 50 mg/kg after 10-day drug-free period), 294 nM; in [20] (single dose 65 mg/kg after 10-day drug-free period) it was 357 nM. For the same compound, the body weight losses in [21] is at most 10%; in data set [3] (C51 model, mice, monotherapy) it was at most 10%; in [3] (LU299 PDX model), at most 10%; in [3] (LXFL1121 PDX model), at most 10%. In the data set with VEGF-A-stimulated HUVEC (HUVEC), the “IC50 VEGF-A-stimulated growth higher than FGF2-stimulated growth” value was determined as 28 fold. The “maximum body weight loss” value turned out to be 5% in data set [3] (DMS-114 model) and 5.2% in [3] (NCI-H716 model). In addition, the “complete responses (CR) (RECIST)” value in the data set with C51 colon tumors [24] (10 mg/kg QD, 2/8) came to 25%; in the data set on C51 colon tumors [24] (50 mg/kg QD, 3/8), 37.5%. Moreover, the “stable disease (SD) (RECIST)” value with C51 colon tumors [24] (50 mg/kg QD, 1/8) was 12.5%. The “phosphorylation of ERK1/2” value in data set [25] was “effectively inhibited”. Further, in [26], the “auto-phosphorylation of FGFR4” value is “inhibited auto‐phosphorylation of FGFR4”.
